This is an account of results in patent publication US20020192827A1, “Novel vector for C. glabrata and the use thereof” (priority 2000, published 2002).

Structures are written as SMILES.

In this assay the test system is C. glabrata strain ATCC 200989. The experiment in a line: geneticin resistance growth test on -Ura medium, uninduced and copper-induced. In kind it is cell-based, Candida glabrata. The procedure:
C. C. glabrata strain with expression plasmid pFPG1 lacking or carrying the wildtype neomycin/kanamycin resistance gene (which confers resistance to the antibiotic geneticin), on -Ura media supplemented with 1 mg/ml geneticin.
C. C. glabrata strain with expression plasmid pFPG2 lacking or carrying the wildtype neomycin/kanamycin resistance gene (which confers resistance to the antibiotic geneticin), on -Ura media supplemented with 1 mg/ml geneticin.
The neomycin/kanamycin resistance gene from Tn903 confers resistance of C. glabrata to the antibiotic G418, geneticin (Cormack and Falkow, 1999). The pFPG1-NEO plasmid and empty pFPG1 as a control were transformed into C. glabrata strain ATCC 200989 and tested for geneticin resistance under uninduced and induced conditions (FIG. 3C). […] In this case, induction of the MT-1 promoter in pFPG1 was not absolutely necessary to obtain adequate expression of the NEO gene.
The NEO pFPG2 plasmid and empty pFPG2 as a control were transformed into C. glabrata strain ATCC 200989 and tested for geneticin resistance on -Ura medium under uninduced and induced conditions (FIG. 6).

Take `CN[C@@H]1[C@@H](O)[C@@H](O[C@@H]2[C@@H](O)[C@H](O[C@H]3O[C@H]([C@@H](C)O)[C@@H](O)[C@H](O)[C@H]3N)[C@@H](N)C[C@H]2N)OC[C@]1(C)O` [geneticin]: the “geneticin concentration required to suppress growth” value (strain ATCC 200989 with empty pFPG1 plasmid) is reported as “about 1 mg/ml” and the “geneticin concentration required to suppress growth” value (strain ATCC 200989 with empty pFPG2 plasmid, -Ura medium) is given as “about 1 mg/ml”.
